These results are taken from the CATMoS acute toxicity set (Mansouri et al. 2021).

The structures appear in SMILES notation. Values joined by “and” are separate entries in the source; they are usually repeats but may differ in a detail not shown here. Equal entries are not always repeated.

The data set in a line: rat acute oral toxicity. The following applies: in vivo. An excerpt:
[…]The data set underlying the modeling effort for this project was initially compiled by NICEATM and U.S. EPA’s CCTE. Briefly, LD50 data were collected from rat acute oral systemic toxicity tests, including limit tests, ranges/confidence intervals, and discrete LD50 values. The full data set included 21,200 LD50 entries for 15,688 substances. […] Data were reviewed to ensure that LD50 values with obvious errors in the extracted data such as unit conversion errors (e.g., comma and decimal separator misplacements) were either fixed or removed. After this review, 16,209 LD50 values remained. Many of the chemicals represented had multiple LD50 entries, requiring that a single representative value per Chemical Abstracts Service Registry Number (CASRN) identifier be defined to facilitate modeling efforts. Based on ATWG feedback and to define the representative LD50 as a protective value while accounting for the distribution across multiple LD50s, the median of the lowest quartile was computed using only discrete LD50 values (omitting limit test data and range and confidence interval data). A detailed summary of the data compilation is available online on the NICEATM webpage dedicated to the collaborative modeling project (NTP 2020).
[…][…] For categorical designations, limit test and range/confidence interval LD50 data were integrated wherever possible. As such, the number of chemicals with end point values/calls varies across the modeling end points (Table 3) based on whether chemicals had representative LD50 values and/or other data. If a chemical had both, the representative value was used to determine categorical calls rather than limit test data. Some data were useable only for certain end points and categories depending on the thresholds. For example, ranges that spanned multiple hazard categories were considered only for the binary (very toxic/nontoxic) end points and omitted from rendering a determination for hazard category assignment.
[…]The final data set comprising 11,992 chemicals was split into training and evaluation sets […], respectively. This process was performed semirandomly by ordering chemicals based on the five end points (categorical and continuous LD50 values) and partitioning every fourth record into the evaluation set accordingly. This approach was taken to ensure an equivalent distribution of the LD50 values and the different hazard categories between the training and the evaluation sets without supervised sampling of the chemicals based on structures (Figure 1A). The sources of the chemical structures were also kept equivalent between the two sets, with chemical structures obtained from DSSTox, being the highest quality, representing over 75% of each set (Figure 1B).
By LD50 is commonly meant the dose at which mortality reaches 50%. A lower LD50 goes with greater toxicity. On to `O=C(C(Cl)(Cl)Cl)C(Cl)(Cl)Cl`, for which the 50% lethal dose (LD50) worked out at 240 mg/kg. The result for `CCCCC(Oc1ccc([N+](=O)[O-])cc1C=O)C(=O)O` (configuration not stated) reads 500 mg/kg; that for `CCCCC(Cc1cc(C(C)(C)C)c(O)c(C(C)(C)C)c1)(C(=O)OC1CC(C)(C)N(C)C(C)(C)C1)C(=O)OC1CC(C)(C)N(C)C(C)(C)C1`, 1490 mg/kg. The figure for `CCCCCCCCC=CCCCCCCCC1=NCCN1CCO` is 1000 mg/kg; for `CSSC` it is 290 mg/kg. `CCCCCCC(CO)CCCC` (configuration not stated) yielded an LD50 of 13000 mg/kg. Compared with the last compound, the LD50 is about 45-fold higher. The figure for `CCOCCO` is 1520 mg/kg; for `CC(C)(C)c1cc(C(C)(C)C)c(O)c(C(C)(C)C)c1` it is 1610 mg/kg; for `CC1(C)[C@H](/C=C2\CCSC2=O)[C@@H]1C(=O)OCc1coc(Cc2ccccc2)c1` it is 650 mg/kg. The figure for `Cc1ccc(NC(=O)N(C)C)cc1Cl` is 5800 mg/kg; for `CCCCC(CC)COS(=O)(=O)O` (configuration not stated) it is 2840 mg/kg; for `CC(C)c1ccccc1` it is 1400 mg/kg. Compound `CCC(=O)C(CC(C)N(C)C)(c1ccccc1)c1ccccc1` (configuration not stated) displayed an LD50 of 30 mg/kg. The figure for `CC(O)CC(C)(C)O` (configuration not stated) is 3700 mg/kg; for `N#Cc1ccccc1` it is 700 mg/kg. Turning to `N#CCC(=O)O`, the LD50 worked out at 1010 mg/kg. This LD50 and that of the compound before are within 1.5-fold of each other. For the compound `CC(C)(c1ccc(O)cc1)c1cccc(C(C)(C)c2ccc(O)cc2)c1`, the LD50 is 5460 mg/kg.

`O=C(O)CBr` displayed an LD50 of 50 mg/kg. Turning to `Cc1ccc(N)c(C)c1`, the median lethal dose (LD50) was 467 mg/kg. The figure for `CCCN(CCC)CCC` is 72.5 mg/kg; for `C=C(C)C(=O)OCCO` it is 5050 mg/kg. Take `C=CCBr`: the LD50 came out at 120 mg/kg. This LD50 is about 42-fold lower than that of the compound before. In turn, `OC(O)C(Cl)(Cl)Cl` showed an LD50 of 479 mg/kg.

`CCc1cccc(C)c1N(C(=O)CCl)C(C)COC` (configuration not stated) yielded an LD50 of 2200 mg/kg. The result for `CC(C)(C)CC(C)(C)c1ccc(OCCO)cc1` reads 1800 mg/kg; that for `CCOP(=S)(NC(C)C)Oc1ccccc1C(=O)OC(C)C` (configuration not stated), 21.1 mg/kg; that for `N#CCCC(Br)(C#N)CBr` (configuration not stated), 515 mg/kg.

For the compound `COc1ccccc1NC(=O)CC(C)=O`, the LD50 is 1600 mg/kg. In turn, `Nc1ccccc1C(F)(F)F` gave an LD50 of 1870 mg/kg.

`COc1ccc(Cc2nccc3cc(OC)c(OC)cc23)cc1OC` showed an LD50 of 325 mg/kg. Compared with the last compound, the LD50 is about 5.8-fold lower. Regarding `CC(C)CN`, the LD50 came to 224 mg/kg. This LD50 and that of the compound before are within 1.5-fold of each other. The figure for `N#CC(Br)Br` is 245 mg/kg; for `O=[N+]([O-])c1cccc(Cl)c1` it is 300 mg/kg; for `CCOP(=S)(OCC)OC(Cl)C(Cl)(Cl)Cl` (configuration not stated) it is 1.8 mg/kg. As for `CC1=NNC(=O)N(/N=C/c2cccnc2)C1`, the median lethal dose (LD50) is 5690 mg/kg. The figure for `Oc1ccc(Cl)cc1` is 500 mg/kg. For the compound `CSc1ccc(C(=O)C(C)(C)N2CCOCC2)cc1`, the median lethal dose (LD50) is 1460 mg/kg. The figure for `C=Cc1cc(Br)ccc1Br` is 5790 mg/kg; for `N#CC(Cl)Cl` it is 330 mg/kg. The figure for `Cc1ccc(N)cc1N` is 73 mg/kg.

The compound `CCCCCCCC(=O)OCC(COC(=O)CCCCCCC)OC(=O)CCCCCCC` showed an LD50 of 33300 mg/kg.

For the compound `CC/C(C)=N/O[Si](C)(O/N=C(\C)CC)O/N=C(\C)CC`, the LD50 stood at 2450 mg/kg.

For `Nc1ccc(Cl)cc1`, the LD50 is 300 mg/kg. Regarding `NNC(=O)c1ccncc1`, the 50% lethal dose (LD50) turned out to be 650 mg/kg. The figure for `C1CO1` is 72 mg/kg. `CCC(C)C(C)C(C)CCc1ccc(O)cc1` (configuration not stated) came in with an LD50 of 2100 mg/kg. In turn, `CC(Cc1ccc(C(C)(C)C)cc1)CN1CCCCC1` (configuration not stated) had an LD50 of 1450 mg/kg. As for `NCCCOCCOCCOCCCN`, the LD50 turned out to be 2850 mg/kg.

`CC1(C)C(C=C(Cl)Cl)C1C(=O)OC(C#N)c1ccc(F)c(Oc2ccccc2)c1` (configuration not stated): the LD50 came out at 270 mg/kg. The figure for `CCC12COCN1COC2` is 3670 mg/kg; for `O=C(Nc1ccc(Cl)c(Cl)c1)C1CC1` it is 215 mg/kg; for `Cc1ccc(C)c(OCCCC(C)(C)C(=O)O)c1` it is 479 mg/kg. The result for `COc1nn(CSP(=S)(OC)OC)c(=O)s1` reads 20 mg/kg. For the compound `O=C1C=CC(=O)O1`, the LD50 came to 318 mg/kg. On to `COCCOCCOCCOC`, for which the median lethal dose (LD50) stood at 5390 mg/kg. The result for `CCCCCCCCCc1ccc(OP(Oc2ccc(CCCCCCCCC)cc2)Oc2ccc(CCCCCCCCC)cc2)cc1` reads 10000 mg/kg.

For the compound `CC[Si](Cl)(Cl)Cl`, the LD50 was determined as 800 mg/kg.

In turn, `NC1CCCCC1N` (configuration not stated) returned an LD50 of 1170 mg/kg. `ClC1C(Cl)C(Cl)C(Cl)C(Cl)C1Cl` (configuration not stated): the LD50 was 88 mg/kg and 100 mg/kg. The figure for `CC(O)C#N` (configuration not stated) is 21 mg/kg.

As to `Oc1c(Cl)cc(Cl)c(Cl)c1Cc1c(O)c(Cl)cc(Cl)c1Cl`, the LD50 stood at 56 mg/kg. This LD50 is about 2.7-fold higher than that of the compound before. The figure for `CC(C)(C)C(=O)O` is 900 mg/kg.
